# Measured values reported in patent US12581252B2, “Substituted pyrrolo[3,4-b]pyridines as PI3K-α inhibitors” (Relay Therapeutics, Inc., priority 2020, dated 2026).
# Target: H1047R PIK3CA enzyme (Homo sapiens, UniProt P42336, H1047R)
# Test: ADP-Glo Biochemical PIK3CA Kinase Assay
# Sequence of H1047R PIK3CA enzyme (P42336 whole entry H1047R): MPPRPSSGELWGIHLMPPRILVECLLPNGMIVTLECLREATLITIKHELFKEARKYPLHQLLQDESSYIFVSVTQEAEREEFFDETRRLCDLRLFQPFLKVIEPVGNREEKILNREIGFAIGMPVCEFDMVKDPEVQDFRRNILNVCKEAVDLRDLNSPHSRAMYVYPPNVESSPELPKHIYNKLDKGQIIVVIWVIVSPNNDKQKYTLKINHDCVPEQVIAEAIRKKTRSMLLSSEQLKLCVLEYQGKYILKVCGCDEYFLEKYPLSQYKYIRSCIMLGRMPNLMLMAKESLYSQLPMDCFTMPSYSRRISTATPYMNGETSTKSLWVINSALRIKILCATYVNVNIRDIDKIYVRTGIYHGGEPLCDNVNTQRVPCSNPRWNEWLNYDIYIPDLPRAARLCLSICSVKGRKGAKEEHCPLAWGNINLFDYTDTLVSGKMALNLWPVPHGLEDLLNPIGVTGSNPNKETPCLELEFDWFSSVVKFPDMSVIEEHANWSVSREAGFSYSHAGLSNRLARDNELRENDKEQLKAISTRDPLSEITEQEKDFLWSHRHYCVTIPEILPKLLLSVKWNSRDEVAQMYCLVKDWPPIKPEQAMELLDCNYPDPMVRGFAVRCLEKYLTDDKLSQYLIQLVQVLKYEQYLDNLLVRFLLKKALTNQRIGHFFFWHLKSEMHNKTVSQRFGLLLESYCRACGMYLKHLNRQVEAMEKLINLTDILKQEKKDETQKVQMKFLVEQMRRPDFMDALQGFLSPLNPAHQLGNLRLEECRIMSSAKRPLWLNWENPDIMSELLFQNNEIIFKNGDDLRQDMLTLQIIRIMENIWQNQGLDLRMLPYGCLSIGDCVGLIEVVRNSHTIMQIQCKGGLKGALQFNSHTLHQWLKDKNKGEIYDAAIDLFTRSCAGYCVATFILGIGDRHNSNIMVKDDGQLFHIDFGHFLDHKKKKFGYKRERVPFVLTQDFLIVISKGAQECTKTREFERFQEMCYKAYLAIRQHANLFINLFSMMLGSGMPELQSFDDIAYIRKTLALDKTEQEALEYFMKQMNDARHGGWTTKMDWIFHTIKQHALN
# Sequence of H1047R PIK3CA enzyme (P27986 whole entry partner): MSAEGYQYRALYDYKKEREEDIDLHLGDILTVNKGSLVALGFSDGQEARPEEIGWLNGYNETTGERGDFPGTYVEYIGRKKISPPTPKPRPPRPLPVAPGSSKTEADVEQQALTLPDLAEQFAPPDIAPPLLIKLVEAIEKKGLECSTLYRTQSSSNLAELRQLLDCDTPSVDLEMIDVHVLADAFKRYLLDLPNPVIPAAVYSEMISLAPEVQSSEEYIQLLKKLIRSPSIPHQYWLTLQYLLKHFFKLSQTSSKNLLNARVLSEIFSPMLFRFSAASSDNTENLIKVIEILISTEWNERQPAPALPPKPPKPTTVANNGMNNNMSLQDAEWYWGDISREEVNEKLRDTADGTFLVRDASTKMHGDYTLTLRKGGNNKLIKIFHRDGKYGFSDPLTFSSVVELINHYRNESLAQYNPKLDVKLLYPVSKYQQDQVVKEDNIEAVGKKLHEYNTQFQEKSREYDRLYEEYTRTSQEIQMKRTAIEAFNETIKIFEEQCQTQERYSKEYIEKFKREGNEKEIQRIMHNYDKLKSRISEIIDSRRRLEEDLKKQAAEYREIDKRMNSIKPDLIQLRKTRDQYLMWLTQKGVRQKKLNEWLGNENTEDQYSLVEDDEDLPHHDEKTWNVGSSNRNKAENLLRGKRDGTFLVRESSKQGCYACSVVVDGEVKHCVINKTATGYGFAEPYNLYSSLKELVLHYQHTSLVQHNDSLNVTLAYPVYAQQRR
row,SMILES,IC50
1,Cc1ccccc1C1NC(=O)Oc2cccc(NC(=O)c3csc4ccccc34)c21 (stereo not shown) [Compound I-294],100 to 500 nM
2,COC(C)(C)Cc1cc(NC(=O)c2cc(F)cc(C(F)(F)F)c2)c2c(c1)C(=O)NC2c1cc(F)ccc1Cl (stereo not shown) [Compound I-820],≤ 100 nM
3,O=C(Nc1ccnc2c1C(c1ccccc1Cl)NC2=O)c1cc(F)cc(OC(F)(F)F)c1 (stereo not shown) [Compound I-234],1000 to 10000 nM
4,O=C1NC(c2cc(F)ccc2Cl)c2c(NCC3CCCCC3)cc(Br)cc21 (stereo not shown) [Compound I-1726],10000 to 100000 nM
5,O=C(Nc1cc(-c2cnn3ncnc3c2)cc2c1[C@H](c1cc(F)ccc1Cl)NC2=O)c1cc(F)cc(C(F)(F)F)c1 [Compound I-1872],≤ 100 nM
6,O=C(Nc1cc(-c2cnc(OCCO)nc2)cc2c1C(c1cc(F)ccc1Cl)NC2=O)c1cc(F)cc(C(F)(F)F)c1 (stereo not shown) [Compound I-1474],≤ 100 nM
7,O=C1NC(c2cc(F)ccc2Cl)c2c(NC(=O)[C@H]3CCC[C@@H](C(F)(F)F)C3)cccc21 (stereo partly shown) [Compound I-2079],500 to 1000 nM
8,"O=C1N[C@@H](c2cc(F)ccc2Cl)c2c(NC(=O)[C@H]3C[C@@H](O)C[C@@H](C(F)(F)F)C3)cc(Br)cc21 (single isomer, unassigned) [Compound I-2273]",10000 to 100000 nM
9,O=C(Nc1cc(-c2cnc3ncc(Cl)n3c2)cc2c1[C@@H](c1cc(F)ccc1Cl)NC2=O)c1cc(F)cc(C(F)(F)F)c1 [Compound I-1984],500 to 1000 nM
10,O=C(Nc1cc(-c2cn[nH]c2)nc2c1[C@H](c1cc(F)ccc1Cl)NC2=O)c1cc(F)cc(Cl)c1 [Compound I-196],≤ 100 nM
11,O=C(Nc1cc(Br)cc2c1C(c1cc(F)ccc1C(F)F)NC2=O)c1cc(F)cc(C(F)(F)F)c1 (stereo not shown) [Compound I-206],≤ 100 nM
12,CS(=O)(=O)n1cc(-c2cc(NC(=O)c3cc(F)cc(C(F)(F)F)c3)c3c(c2)C(=O)N[C@H]3c2cc(F)ccc2Cl)cn1 [Compound I-1996],≤ 100 nM
13,O=C1NC(c2cc(F)ccc2Cl)c2c(NC(=O)N3CC(O)c4cc(Cl)ccc43)cccc21 (mixture of isomers) [Compound I-2376],1000 to 10000 nM
14,"CN1C[C@H](Nc2cc(NC(=O)c3cc(F)cc(C(F)(F)F)c3)c3c(c2)C(=O)NC3c2cc(F)ccc2Cl)CC1=O (single isomer, unassigned) [Compound I-343]",≤ 100 nM
15,O=C(Nc1cccc2c1C(c1cc(F)ccc1Cl)NC2=O)c1csc2c1CCOC2 (stereo not shown) [Compound I-2266],100 to 500 nM
16,O=C(Nc1cc(-c2ccc3nc(Cl)nn3c2)cc2c1C(c1cc(F)ccc1Cl)NC2=O)c1cc(F)cc(C(F)(F)F)c1 (stereo not shown) [Compound I-1573],≤ 100 nM
17,O=C1NC(c2cc(F)ccc2Cl)c2c(NC(=O)C3CCC3)cc(-c3ccc4ncnn4c3)cc21 (stereo not shown) [Compound I-1778],10000 to 100000 nM
18,Cc1ncc(-c2cc(NC(=O)c3cc(F)cc(Cl)c3)c3c(n2)C(=O)NC3c2cc(F)ccc2Cl)s1 (stereo not shown) [Compound I-457],≤ 100 nM
19,Cc1ccccc1C1NC(=O)c2cc(CN)cc(NC(=O)c3cc(F)cc(C(F)(F)F)c3)c21 (stereo not shown) [Compound I-260],100 to 500 nM

row,SMILES,IC50
1,Cc1cc(=O)[nH]cc1C(=O)Nc1cc(Br)cc2c1C(c1cc(F)ccc1Cl)NC2=O (stereo not shown) [Compound I-1240],10000 to 100000 nM
2,"O=C1N[C@H](c2cc(F)ccc2Cl)c2c(NC(=O)N3C[C@](O)(C(F)(F)F)c4ccccc43)cc(Cl)cc21 (single isomer, unassigned) [Compound I-2508]",1000 to 10000 nM
3,"C[S@](=O)(Cc1cc(NC(=O)c2cc(F)cc(C(F)(F)F)c2)c2c(c1)C(=O)N[C@@H]2c1cc(F)ccc1Cl)=NC#N (single isomer, unassigned) [Compound I-1563]",≤ 100 nM
4,COc1cccc(-c2cccc3c2C(c2ccccc2C)NC3=O)n1 (stereo not shown) [Compound I-14],10000 to 100000 nM
5,O=C1NC(c2cc(F)ccc2Cl)c2c(NC(=O)c3c[nH]c4cccc(Cl)c34)cc(Br)cc21 (stereo not shown) [Compound I-956],1000 to 10000 nM
6,O=C(Nc1cc(-c2ccn3nncc3c2)cc2c1C(c1cc(F)ccc1Cl)NC2=O)c1cc(F)cc(C(F)(F)F)c1 (stereo not shown) [Compound I-1670],≤ 100 nM
7,COc1ncc(-c2cc(NC(=O)c3cc(F)cc(C(F)(F)F)c3)c3c(c2)C(=O)NC3c2cc(F)ccc2Cl)c(N)n1 (stereo not shown) [Compound I-1151],100 to 500 nM
8,O=C(O)Cc1ccccc1-c1cc(NC(=O)c2cc(F)cc(C(F)(F)F)c2)c2c(c1)C(=O)NC2c1cc(F)ccc1Cl (stereo not shown) [Compound I-1265],100 to 500 nM
9,O=C(Nc1cc(-c2ccc3ncnn3n2)cc2c1[C@@H](c1cc(F)ccc1Cl)NC2=O)c1cc(F)cc(C(F)(F)F)c1 [Compound I-1649],1000 to 10000 nM
10,O=C1NC(c2cc(F)ccc2Cl)c2c(NC(=O)C34CC5CC(CC(F)(C5)C3)C4)cccc21 (stereo not shown) [Compound I-1133],500 to 1000 nM
11,N#Cc1cnccc1-c1cc(NC(=O)c2cc(F)cc(Cl)c2)c2c(n1)C(=O)NC2c1cc(F)ccc1Cl (stereo not shown) [Compound I-506],≤ 100 nM
12,N#Cc1nc(-c2cc(NC(=O)c3cc(F)cc(C(F)(F)F)c3)c3c(c2)C(=O)NC3c2cc(F)ccc2Cl)cs1 (stereo not shown) [Compound I-1311],≤ 100 nM
13,O=C(Nc1cc(Br)cc2c1C(c1cc(F)ccc1Cl)NC2=O)c1cc(F)cc(Cl)c1O (stereo not shown) [Compound I-845],500 to 1000 nM
14,O=C(Nc1cc(C#CC2(O)COC2)cc2c1C(c1cc(F)ccc1Cl)NC2=O)c1cc(F)cc(C(F)(F)F)c1 (stereo not shown) [Compound I-1154],≤ 100 nM
15,"CNc1cc(NC(=O)N2C[C@](O)(C(F)(F)F)c3cc(F)ccc32)c2c(c1)C(=O)N[C@H]2c1cc(F)ccc1Cl (single isomer, unassigned) [Compound I-2643]",1000 to 10000 nM
16,"Cn1cc(Nc2cc(NC(=O)c3cc(F)cc(C(F)(F)F)c3)c3c(c2)C(=O)N[C@@H]3c2cc(F)ccc2Cl)cn1 (single isomer, unassigned) [Compound I-998]",500 to 1000 nM
17,N#Cc1cnc2cc(F)c(-c3cc(NC(=O)c4cc(F)cc(C(F)(F)F)c4)c4c(c3)C(=O)N[C@H]4c3cc(F)ccc3Cl)cn12 [Compound I-1884],≤ 100 nM
18,"O=C1N[C@@H](c2cc(F)ccc2Cl)c2c(NC(=O)N3C[C@@](O)(C(F)(F)F)c4cc(F)ccc43)cc(C3COC3)cc21 (single isomer, unassigned) [Compound I-2656]",500 to 1000 nM
19,O=C1NC(c2cc(F)ccc2Cl)c2c(NCc3ccccc3)cc(Br)cc21 (stereo not shown) [Compound I-1658],10000 to 100000 nM

# Next, values leading:
row,IC50,SMILES
1,≤ 100 nM,N#C[C@H]1C[C@H](Oc2cc(NC(=O)c3cc(F)cc(C(F)(F)F)c3)c3c(c2)C(=O)N[C@H]3c2cc(F)ccc2Cl)C1 (stereo in doubt) [Compound I-1305]
2,100 to 500 nM,O=C(Nc1cc(-c2cccnc2)nc2c1C(c1cc(F)ccc1Cl)NC2=O)c1cc(F)cc(Cl)c1 (stereo not shown) [Compound I-455]
3,1000 to 10000 nM,"O=C1N[C@@H](c2cc(F)ccc2Cl)c2c(NC(=O)N3C[C@](O)(C(F)(F)F)c4ccccc43)cc(Cl)cc21 (single isomer, unassigned) [Compound I-2507]"
4,100 to 500 nM,CC(=O)c1cc(NC(=O)c2cc(F)cc(Cl)c2)c2c(c1)C(=O)NC2c1cc(F)ccc1Cl (stereo not shown) [Compound I-215]
5,≤ 100 nM,"O=C1C[C@H](c2cc(NC(=O)c3cc(F)cc(C(F)(F)F)c3)c3c(c2)C(=O)N[C@H]3c2cc(F)ccc2Cl)CN1 (single isomer, unassigned) [Compound I-1709]"
6,10000 to 100000 nM,"O=C1N[C@@H](c2cc(F)ccc2Cl)c2c1cc(-c1ccc3ncnn3c1)cc2S(=O)(=O)Cc1ccccc1 (single isomer, unassigned) [Compound I-1906]"
7,10000 to 100000 nM,O=C1N[C@H](c2cc(F)ccc2Cl)c2c(NC(=O)N3C[C@](O)(CO)c4ccccc43)cccc21 [Compound I-2168]
8,≤ 100 nM,O=C(Nc1cc(-c2ccn3nccc3c2)cc2c1C(c1cc(F)ccc1Cl)NC2=O)c1cc(F)cc(C(F)(F)F)c1 (stereo not shown) [Compound I-1669]
9,1000 to 10000 nM,Cc1ccccc1C1NC(=O)c2c(N3CCOCC3)ncc(NC(=O)c3cc(F)cc(C(F)(F)F)c3)c21 (stereo not shown) [Compound I-253]
10,1000 to 10000 nM,"C[C@@H](C#N)Cn1cc(-c2cc(NC(=O)N3C[C@@H](O)c4cc(F)ccc43)c3c(c2)C(=O)N[C@@H]3c2cc(F)ccc2Cl)cn1 (single isomer, unassigned) [Compound I-2504]"
11,10000 to 100000 nM,CC(=O)N1CCCCC1C1NC(=O)c2cccc(NC(=O)c3cc(F)cc(C(F)(F)F)c3)c21 (stereo not shown) [Compound I-1674]
12,10000 to 100000 nM,O=C(Nc1cc(Br)cc2c1C(c1cc(F)ccc1Cl)NC2=O)c1ccccc1 (stereo not shown) [Compound I-470]
13,≤ 100 nM,O=C(Nc1cc(Br)cc2c1[C@H](c1cc(F)c(F)cc1Cl)NC2=O)c1cc(F)cc(C(F)(F)F)c1 [Compound I-677]
14,1000 to 10000 nM,O=C1NC(c2cc(F)ccc2Cl)c2c(NC(=O)C3CCS(=O)(=O)CC3)cc(-c3ccc4ncnn4c3)cc21 (stereo not shown) [Compound I-2045]
15,1000 to 10000 nM,"O=C1N[C@H](c2cc(F)ccc2Cl)c2c(NC(=O)N3C[C@@H](O)c4c3ccc(F)c4F)cccc21 (single isomer, unassigned) [Compound I-2311]"
16,1000 to 10000 nM,"O=C1N[C@H](c2cc(F)ccc2Cl)c2c(NC(=O)N3C[C@@H](O)c4cc(F)ccc43)cc(-n3nccn3)cc21 (single isomer, unassigned) [Compound I-2344]"
17,1000 to 10000 nM,Cc1ccccc1-n1[nH]c(=O)c2cccc(NC(=O)c3nsc4ccc(F)cc34)c21 [Compound I-152]
18,100 to 500 nM,"COC(=O)c1cc(NC(=O)c2nsc3ccccc23)c2c(n1)C(=O)NC2c1ccccc1Cl (stereo not shown) [Compound I-222, Methyl 4-(1,2-benzothiazole-3-amido)-5-(2-chlorophenyl)-7-oxo-5H,6H,7H-pyrrolo[3,4-b]pyridine-2-carboxylate]"
19,≤ 100 nM,O=C(Nc1cc(Br)cc2c1C(c1cc(F)c(F)cc1Cl)NC2=O)c1cc(F)cc(C(F)(F)F)c1 (stereo not shown) [Compound I-678]
20,1000 to 10000 nM,"CC(C)[C@]1(O)CN(C(=O)Nc2cccc3c2[C@@H](c2cc(F)ccc2Cl)NC3=O)c2ccc(F)cc21 (single isomer, unassigned) [Compound I-2455]"
21,1000 to 10000 nM,O=C(Nc1cc(Br)cc2c1C(c1cc(F)ccc1Cl)NC2=O)c1cc2ccccc2[nH]1 (stereo not shown) [Compound I-1610]
22,10000 to 100000 nM,O=C1NC(c2cc(F)ccc2Cl)c2c(NC(=O)N3CCc4ccccc4CC3)cccc21 (stereo not shown) [Compound I-2308]
23,10000 to 100000 nM,COc1ccccc1C(=O)Nc1cc(Br)cc2c1C(c1cc(F)ccc1Cl)NC2=O (stereo not shown) [Compound I-471]
